Assay results reported in patent publication US20140294737A1, “TREATMENT OF RHINITIS” (AMPIO PHARMACEUTICALS, INC., priority 2011, published 2014).

Tested on: allergic rhinitis in adult humans
Test: Phase Ib randomized, double-blinded, placebo-controlled study of danazol intranasal spray; subject-reported Total Nasal Symptom Score (TNSS)
Format: in vivo, human
Parameters: key to Change in rTNSS, Median / Change in AM rTNSS, Median / Change in iTNSS, Median / Change in AM iTNSS, Median: change in TNSS, sum of four 0–3 symptom scores (0–12)
Method: A Phase Ib randomized, double-blinded, placebo-controlled, parallel group study was performed to evaluate the efficacy of danazol for treating allergic rhinitis in adult humans. Briefly, the study was performed as follows.
The subjects were male or female humans, 18-65 years of age, with a history of allergic rhinitis that had been receiving therapy (continuous or intermittent) for more than 1 year.
During a seven-day wash out period (days 1-7), the subjects received no treatment of any type and recorded their symptoms twice a day (in the morning before bathing, consumption of food or beverages or strenuous activities and 12 hours later) using the following scale: • 0=absent (no sign/symptom present) • 1=mild (sign/symptom clearly present, but minimal awareness; easily tolerated) • 2=moderate (definite awareness of sign/symptom that is bothersome but tolerable) • 3=severe (sign/symptom that is hard to tolerate; causes interference with activities of daily living and/or sleeping)
The subjects were randomized into treatment groups (danazol or placebo) after the wash out period (on day 8).
Treatment was begun on day 8 and continued through day 21 (14 days total). During treatment, the subjects again recorded their symptoms twice daily (as described above and before administration of the test medications in the morning) using the above scale. The subjects administered 0.3 ml of one of the test medications, 0.15 ml per nostril, once daily in the morning, immediately after recording their symptoms. The first administration of test medications was supervised by test site personnel. The test medications were 0.1% (w/v) danazol intranasal spray and placebo spray (nonmedicinal components in identical intranasal spray format). Efficacy of the test medications was assessed as follows:
The measures of effectiveness in this study included the subject-reported Total Nasal Symptom Score (TNSS). The TNSS is defined as the sum of the subject-reported symptom scores for the four nasal symptoms: rhinorrhea (runny nose), nasal congestion, nasal itching, and sneezing. Each score is assessed on a severity scale ranging from 0 to 3 as defined above.
The subjects were asked to assess both reflective TNSS (i.e., an evaluation of symptom severity over the past 12 hours prior to the recording of the score) and instantaneous TNSS (i.e., an evaluation of the symptom severity over the last 10 minutes).
The reflective and instantaneous TNSS are defined as the sum of the subject-reported symptom scores for the four nasal symptoms. Each subject recorded the symptom scores in the subject's diary. For each score, information recorded in the diary included the following: • rhinorrhea (runny nose) • nasal congestion • nasal itching • sneezing The severity scale for each symptom evaluation is given above.
Mean reflective (r) and instantaneous (i) subject-reported total nasal symptom scores (TNSS) were calculated for each subject. The mean TNSS is the average of all AM and PM daily scores (each score is ranked on a scale from 0-12) during the baseline (baseline efficacy value) and the treatment period (double-blind efficacy value).
The change in efficacy was calculated as the change in the double-blind value—baseline value as follows: • Change in rTNSS: mean double-blind rTNSS—mean baseline rTNSS • Change in iTNSS: mean double-blind iTNSS—mean baseline iTNSS Student's t-test: mean (SD) difference between treatment groups for the following: • Mean change in (rTNSS/iTNSS) • Mean change in AM (rTNSS/iTNSS) • Mean change in PM (rTNSS/iTNSS) • Mean change in individual symptom scores for each of the four nasal symptoms.
The largest improvements were with itchy nose symptoms (Table 8 and FIG. 6).

[1] = Wilcoxon rank-sum analysis, median, n=10
[2] = instantaneous symptom score 0-3, double-blind minus baseline, mean (SD), n=10
[3] = reflective symptom score 0-3, double-blind minus baseline, mean (SD), n=10

## C#C[C@]1(O)CC[C@H]2[C@@H]3CCC4=Cc5oncc5C[C@]4(C)[C@H]3CC[C@@]21C [Danazol, 17α-pregna-2,4-dien-20-yno[2,3-d]-isoxazol-17β-ol]
[1]
  Change in instantaneous symptom iItchy nose, Median: −1.0
  Change in instantaneous symptom iRunny nose, Median: 0.0
  Change in instantaneous symptom iSneezing, Median: −0.5
  Change in instantaneous symptom iStuffy nose, Median: −0.5
  Change in reflective symptom rItchy nose, Median: −1.0
  Change in reflective symptom rRunny nose, Median: −0.25
  Change in reflective symptom rSneezing, Median: −1.0
  Change in reflective symptom rStuffy nose, Median: 0.0
iTNSS measures, all assessments but sneezing
  efficacy measures showing a larger improvement with danazol than with placebo, instantaneous: 6/7
Instantaneous TNSS, all AM and PM scores, double-blind minus baseline, 0.1% (w/v) intranasal spray once daily, 14 days, mean (SD), n=10
  Mean change in iTNSS: −1.94 (2.68)
Instantaneous TNSS, evening assessment, double-blind minus baseline, mean (SD), n=10
  Mean change in PM iTNSS: −1.42 (2.64)
Instantaneous TNSS, evening, Wilcoxon rank-sum analysis, median, n=10
  Change in PM iTNSS, Median: −1.5
Instantaneous TNSS, morning assessment, double-blind minus baseline, mean (SD), n=10
  Mean change in AM iTNSS: −1.59 (2.36)
Instantaneous TNSS, morning, Wilcoxon rank-sum analysis, median, n=10
  Change in AM iTNSS, Median: −1.5
Instantaneous TNSS, Wilcoxon rank-sum analysis, median, n=10
  Change in iTNSS, Median: −1.75
[2]
  Mean change in instantaneous symptom iItchy nose: −0.70 (0.92)
  Mean change in instantaneous symptom iRunny nose: −0.30 (1.07)
  Mean change in instantaneous symptom iSneezing: −0.50 (0.53)
  Mean change in instantaneous symptom iStuffy nose: −0.44 (0.56)
mean, Student's t-test analysis, vs 1.14 point decrease with placebo
  decrease in instantaneous symptom severity (iTNSS): 1.94 point
mean, Student's t-test analysis, vs 1.16 point decrease with placebo
  decrease in reflective symptom severity (rTNSS): 2.11 point
median, Wilcoxon rank-sum analysis, vs 0.75 point decrease with placebo
  decrease in instantaneous symptom severity (iTNSS): 1.75 point
median, Wilcoxon rank-sum analysis, vs 1.25 point decrease with placebo
  decrease in reflective symptom severity during the PM assessment (rTNSS): 3.25 point
rTNSS measures, all assessments but runny nose symptom
  efficacy measures showing a larger improvement with danazol than placebo, reflective: 6/7
Reflective TNSS, all AM and PM scores, double-blind minus baseline, 0.1% (w/v) intranasal spray 0.3 ml once daily, 14 days, mean (SD), n=10
  Mean change in rTNSS: −2.11 (2.66)
Reflective TNSS, evening assessment, double-blind minus baseline, 0.1% (w/v) intranasal spray once daily, 14 days, mean (SD), n=10
  Mean change in PM rTNSS: −2.39 (2.68)
Reflective TNSS, evening assessment, double-blind minus baseline, 0.1% (w/v) intranasal spray once daily, 14 days, mean (SD), n=10, listed as danazol
  Mean change in PM rTNSS: −2.39
Reflective TNSS, evening, Wilcoxon rank-sum analysis, median, n=10
  Change in PM rTNSS, Median: −3.25
Reflective TNSS, morning assessment, double-blind minus baseline, 0.1% (w/v) intranasal spray once daily, 14 days, mean (SD), n=10
  Mean change in AM rTNSS: −1.62 (2.40)
Reflective TNSS, morning, Wilcoxon rank-sum analysis, median, n=10
  Change in AM rTNSS, Median: −2.0
Reflective TNSS, Wilcoxon rank-sum analysis, median, n=10
  Change in rTNSS, Median: −2.25
[3]
  Mean change in reflective symptom rItchy nose: −0.85 (1.02)
  Mean change in reflective symptom rRunny nose: −0.30 (0.66)
  Mean change in reflective symptom rSneezing: −0.47 (0.71)
  Mean change in reflective symptom rStuffy nose: −0.48 (0.69)
